Data from patent publication US20100035866A1, “NOVEL SUBSTITUTED-1, 1-DIOXO-BENZO[1,2,4]THIADIAZIN-3ONES, PREPARATION METHOD THEREOF, AND PHARMACEUTICAL COMPOSITION CONTAINING THE SAME” (KOREA RESEARCH INSTITUTE OF CHEMICAL TECHNOLOGY, priority 2006, published 2010).

Columns and labels:
5-HT1a = target: T1, 5-HT1a (Homo sapiens, UniProt P08908); assay: Radioligand binding, 5-HT receptor family: 5-HT1a ([3H]8-OH-DPAT); conditions: CHO-K1 human recombinant receptor, [3H]8-OH-DPAT 0.5 nM; read-out: Binding affinity, IC50 (nM), 5-HT1a
T1 construct: purchased Euroscreen/BioSignal Packard Inc
T1 sequence (P08908 1-422): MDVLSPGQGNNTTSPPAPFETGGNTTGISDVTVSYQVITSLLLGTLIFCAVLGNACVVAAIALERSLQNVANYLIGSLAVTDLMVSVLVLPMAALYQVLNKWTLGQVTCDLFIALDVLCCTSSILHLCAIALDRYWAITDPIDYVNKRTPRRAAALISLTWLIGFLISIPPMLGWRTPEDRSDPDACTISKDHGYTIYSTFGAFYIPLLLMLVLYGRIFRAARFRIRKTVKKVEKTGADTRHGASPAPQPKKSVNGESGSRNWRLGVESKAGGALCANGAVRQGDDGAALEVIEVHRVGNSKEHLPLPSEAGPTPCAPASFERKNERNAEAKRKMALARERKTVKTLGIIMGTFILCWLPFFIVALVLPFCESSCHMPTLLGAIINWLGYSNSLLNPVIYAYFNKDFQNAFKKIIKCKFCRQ

hD4.2 receptor = target: T2, hD4.2 receptor (Homo sapiens, UniProt P21917, DEL265-296); assay: Dopamine receptor family binding: D4 ([3H]YM-09151-2); conditions: [3H]YM-09151-2 0.06 nM; read-out: Binding affinity, IC50 (nM), D4
T2 construct: purchased BioSignal Packard Inc., Montreal, Canada
T2 sequence (P21917 with tags, fused parts or gaps DEL265-296): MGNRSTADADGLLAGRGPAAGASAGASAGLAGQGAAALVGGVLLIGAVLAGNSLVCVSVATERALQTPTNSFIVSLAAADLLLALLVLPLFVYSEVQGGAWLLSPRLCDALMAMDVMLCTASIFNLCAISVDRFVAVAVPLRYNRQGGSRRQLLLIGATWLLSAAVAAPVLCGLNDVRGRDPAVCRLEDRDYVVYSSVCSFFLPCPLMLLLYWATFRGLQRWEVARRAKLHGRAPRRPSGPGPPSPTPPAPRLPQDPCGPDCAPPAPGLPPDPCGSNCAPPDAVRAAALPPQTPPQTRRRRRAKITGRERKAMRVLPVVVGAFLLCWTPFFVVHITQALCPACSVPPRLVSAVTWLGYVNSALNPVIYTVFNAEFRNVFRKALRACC
Summary of the method: (§1)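 Competition binding on human receptor membranes: D2L with [3H]spiperone 1 nM in 50 mM Tris-HCl pH 7.4, 10 mM MgCl2, 1 mM EDTA; D4.2 with [3H]YM-09151-2 0.06 nM in Tris-HCl pH 7.4 with MgCl2, EDTA, KCl, CaCl2. 7-8 concentrations in duplicate, three assays; IC50 by nonlinear regression.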

5-HT6 receptors = 5-HT6 receptors (Homo sapiens, UniProt P50406); assay: Adenylyl cyclase activity (cAMP accumulation) in HeLa cells transfected with human 5-HT6 receptor
D1 = D1 (Homo sapiens, UniProt P21728); assay: Dopamine receptor family binding: D1; conditions: read-out: Binding affinity, IC50 (nM), D1
[1] = target: Human serotonin 5-HT6 receptor (Homo sapiens, UniProt P50406); assay: [3H]LSD binding assay on cloned 5-HT6 receptor; conditions: IC50 (nM)
5-HT2c = target: T3, 5-HT2c (Homo sapiens, UniProt P28335); assay: Radioligand binding, 5-HT receptor family: 5-HT2c ([3H]Mesulergine); conditions: CHO-K1 human recombinant receptor, [3H]Mesulergine 1 nM; read-out: Binding affinity, IC50 (nM), 5-HT2c
T3 construct: purchased Euroscreen/BioSignal Packard Inc
T3 sequence (P28335 33-458): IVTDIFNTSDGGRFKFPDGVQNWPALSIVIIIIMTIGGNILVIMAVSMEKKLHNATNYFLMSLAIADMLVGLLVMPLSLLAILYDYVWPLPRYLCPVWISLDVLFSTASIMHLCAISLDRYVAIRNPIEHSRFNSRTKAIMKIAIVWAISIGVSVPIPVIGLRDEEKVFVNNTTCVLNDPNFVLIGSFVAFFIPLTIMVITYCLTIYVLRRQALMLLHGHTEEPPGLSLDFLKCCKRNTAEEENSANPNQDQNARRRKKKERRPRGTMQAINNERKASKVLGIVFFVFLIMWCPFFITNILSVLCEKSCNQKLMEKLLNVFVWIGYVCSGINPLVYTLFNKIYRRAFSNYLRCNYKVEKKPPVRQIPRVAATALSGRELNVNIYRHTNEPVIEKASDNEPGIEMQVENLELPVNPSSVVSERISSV

[2] = tested on: HeLa cells transfected with the human 5-HT6 receptor; assay: Cytotoxicity in HeLa cells of the cAMP assay; format: cell-based; conditions: at the concentrations tested (0.001-10 μM)
hD3 receptor = target: T4, hD3 receptor (Homo sapiens, UniProt P35462); assay: Dopamine receptor family binding: D3 ([3H]spiperone); conditions: [3H]spiperone 1 nM; read-out: Binding affinity, IC50 (nM), D3
T4 construct: purchased BioSignal Packard Inc., Montreal, Canada

5-HT2a = target: T5, 5-HT2a (Homo sapiens, UniProt P28223); assay: Radioligand binding, 5-HT receptor family: 5-HT2a ([3H]Ketanserin); conditions: CHO-K1 human recombinant receptor, [3H]Ketanserin 1 nM; read-out: Binding affinity, IC50 (nM), 5-HT2a
T5 construct: purchased Euroscreen/BioSignal Packard Inc

hD2L receptor = target: T6, hD2L receptor (Homo sapiens, UniProt P14416); assay: Dopamine receptor family binding: D2 ([3H]spiperone); conditions: [3H]spiperone 1 nM; read-out: Binding affinity, IC50 (nM), D2
T6 construct: purchased BioSignal Packard Inc., Montreal, Canada
Summary of the method: as §1

mice = assay: Rotarod deficit; conditions: mouse, in vivo
Description: The mouse was placed on a 1 inch diameter knurled plastic rod rotating at 6 rpm (Ugo-Basile, Milano, Italy), and the rotarod deficit (%) was obtained by counting the number of animals fallen from the rotating rod within 1 min (Dunham et al., 1957) at 30, 60, 90 and 120 min after the injection of test compound.

5-HT7 = target: T7, 5-HT7 (Homo sapiens, UniProt P34969); assay: Radioligand binding, 5-HT receptor family: 5-HT7 ([3H]LSD); conditions: CHO-K1 human recombinant receptor, [3H]LSD 3 nM; read-out: Binding affinity, IC50 (nM), 5-HT7
T7 construct: purchased Euroscreen/BioSignal Packard Inc
Summary of the method: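 Supplier-recommended protocol used throughout, with purchased membrane preparations carrying each receptor as the binding source.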

rats = assay: Apomorphine-induced disruption of prepulse inhibition (PPI) of acoustic startle
[3] = HeLa, read-out: inhibition of 0.3 μM serotonin (5-HT)-induced increase in cAMP levels

Sequence of 5-HT6 receptors (P50406 whole entry): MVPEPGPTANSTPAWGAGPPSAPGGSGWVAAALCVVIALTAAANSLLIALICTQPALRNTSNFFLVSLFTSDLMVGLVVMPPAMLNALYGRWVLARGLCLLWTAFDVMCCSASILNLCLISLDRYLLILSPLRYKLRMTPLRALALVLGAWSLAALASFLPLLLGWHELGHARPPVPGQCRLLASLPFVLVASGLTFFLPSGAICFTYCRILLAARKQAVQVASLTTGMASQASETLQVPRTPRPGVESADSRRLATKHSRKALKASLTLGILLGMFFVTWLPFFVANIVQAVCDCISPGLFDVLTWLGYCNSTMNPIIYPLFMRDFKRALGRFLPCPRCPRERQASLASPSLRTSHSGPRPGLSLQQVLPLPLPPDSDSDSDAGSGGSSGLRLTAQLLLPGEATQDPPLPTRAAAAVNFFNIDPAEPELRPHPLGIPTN
Sequence of Human serotonin 5-HT6 receptor (P50406 whole entry): as above
T5 sequence (P28223 whole entry): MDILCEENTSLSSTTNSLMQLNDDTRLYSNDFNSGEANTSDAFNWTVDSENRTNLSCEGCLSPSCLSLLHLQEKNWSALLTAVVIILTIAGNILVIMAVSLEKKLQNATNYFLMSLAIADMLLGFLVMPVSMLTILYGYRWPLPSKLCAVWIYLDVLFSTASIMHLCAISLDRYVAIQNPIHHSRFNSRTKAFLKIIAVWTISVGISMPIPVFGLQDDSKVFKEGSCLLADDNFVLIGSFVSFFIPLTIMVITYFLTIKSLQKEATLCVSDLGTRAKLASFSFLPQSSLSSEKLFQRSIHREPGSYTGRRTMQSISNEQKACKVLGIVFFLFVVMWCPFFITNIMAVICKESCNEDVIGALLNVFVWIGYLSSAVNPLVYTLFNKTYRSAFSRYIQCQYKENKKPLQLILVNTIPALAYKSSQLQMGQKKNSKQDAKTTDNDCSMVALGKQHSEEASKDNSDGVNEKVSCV
Sequence of D1 (P21728 whole entry): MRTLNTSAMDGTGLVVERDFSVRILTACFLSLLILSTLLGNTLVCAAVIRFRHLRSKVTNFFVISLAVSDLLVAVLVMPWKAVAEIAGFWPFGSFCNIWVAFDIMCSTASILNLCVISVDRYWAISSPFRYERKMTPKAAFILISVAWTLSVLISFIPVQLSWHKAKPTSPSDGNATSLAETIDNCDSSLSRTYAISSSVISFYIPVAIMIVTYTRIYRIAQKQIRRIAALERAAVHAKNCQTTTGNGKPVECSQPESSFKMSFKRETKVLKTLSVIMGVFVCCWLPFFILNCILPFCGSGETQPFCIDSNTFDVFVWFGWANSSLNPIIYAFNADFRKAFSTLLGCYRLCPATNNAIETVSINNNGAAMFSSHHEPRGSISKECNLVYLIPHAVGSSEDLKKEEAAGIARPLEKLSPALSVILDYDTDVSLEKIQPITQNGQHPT
T4 sequence (P35462 whole entry): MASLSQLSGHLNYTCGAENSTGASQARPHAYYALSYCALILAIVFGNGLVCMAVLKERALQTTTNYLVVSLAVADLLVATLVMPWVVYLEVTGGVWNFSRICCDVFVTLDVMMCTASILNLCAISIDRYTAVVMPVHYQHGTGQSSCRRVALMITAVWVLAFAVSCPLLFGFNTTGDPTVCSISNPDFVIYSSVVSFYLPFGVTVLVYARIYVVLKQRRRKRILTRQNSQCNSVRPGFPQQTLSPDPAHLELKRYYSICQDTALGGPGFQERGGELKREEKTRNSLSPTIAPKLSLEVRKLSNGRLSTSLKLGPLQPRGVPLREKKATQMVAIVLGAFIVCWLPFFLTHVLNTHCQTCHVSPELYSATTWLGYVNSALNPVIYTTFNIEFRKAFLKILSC
T7 sequence (P34969 whole entry): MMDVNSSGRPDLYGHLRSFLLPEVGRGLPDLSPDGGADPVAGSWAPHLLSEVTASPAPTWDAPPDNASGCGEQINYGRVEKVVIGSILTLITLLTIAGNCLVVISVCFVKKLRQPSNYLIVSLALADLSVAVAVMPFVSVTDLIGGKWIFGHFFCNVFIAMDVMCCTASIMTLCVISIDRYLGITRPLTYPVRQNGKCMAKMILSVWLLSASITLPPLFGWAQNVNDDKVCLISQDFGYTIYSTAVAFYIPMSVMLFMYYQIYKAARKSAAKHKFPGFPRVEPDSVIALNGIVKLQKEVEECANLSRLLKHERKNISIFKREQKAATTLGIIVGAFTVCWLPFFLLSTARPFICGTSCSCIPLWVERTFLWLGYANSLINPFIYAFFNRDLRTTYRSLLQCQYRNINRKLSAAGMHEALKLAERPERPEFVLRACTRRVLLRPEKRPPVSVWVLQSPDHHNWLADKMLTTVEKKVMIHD
T6 sequence (P14416 whole entry): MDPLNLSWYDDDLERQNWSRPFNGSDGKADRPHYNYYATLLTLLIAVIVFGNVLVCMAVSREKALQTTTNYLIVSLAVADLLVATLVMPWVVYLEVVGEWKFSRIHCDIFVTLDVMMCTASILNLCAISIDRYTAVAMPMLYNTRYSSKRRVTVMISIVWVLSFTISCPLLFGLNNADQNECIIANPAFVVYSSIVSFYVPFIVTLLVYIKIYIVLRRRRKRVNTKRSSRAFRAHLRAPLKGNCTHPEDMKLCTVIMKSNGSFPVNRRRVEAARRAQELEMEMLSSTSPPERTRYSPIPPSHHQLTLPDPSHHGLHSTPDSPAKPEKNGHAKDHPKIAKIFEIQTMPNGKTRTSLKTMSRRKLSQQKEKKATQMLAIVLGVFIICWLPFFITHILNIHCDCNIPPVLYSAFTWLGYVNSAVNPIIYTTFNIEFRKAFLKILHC

With O=C1N(Cc2ccccc2)c2cc(Cl)cc(N3CCNCC3)c2S(=O)(=O)N1Cc1ccccc1 [Example 44, 2,4-Dibenzyl-6-chloro-1,1-dioxo-8-piperazin-1-yl-1,4-dihydro-2H-1λ^6-benzo[1,2,4]thiadiazin-3-one] the IC50 (5-HT1a) was 5400 nM, the IC50 (hD4.2 receptor) was > 10000 nM and the IC50 (5-HT6 receptors) was 67.8 nM. For the same compound, the “5-HT-induced increase in cAMP level inhibited (in words)” value (5-HT6 receptors; FIG. 1) was “inhibited”, the inhibition at 0.001 µM (5-HT6 receptors; [3]) was 0% and the inhibition at 0.01 µM (5-HT6 receptors; [3]) was 8%. It also gave an inhibition at 0.1 µM (5-HT6 receptors; [3]) of 63%, an inhibition at 1 µM (5-HT6 receptors; [3]) of 100% and an inhibition at 10 µM (5-HT6 receptors; [3]) of 100%. It also gave an IC50 (D1) of 6390 nM, an IC50 ([1]; Binding affinity, 5-HT6, Table 4) of 1 nM and an IC50 ([1]; binding affinity to the 5-HT6 receptor, Table 2, 1.87 nM [3H]LSD, cloned human receptor membranes from Sf21 cells, 37° C. 60 min) of 0.9 nM. For the same compound, the IC50 (5-HT2c) was 1880 nM, the cytotoxicity [2] was “did not show any cytotoxicity” and the melting point was 108 to 109 °C. The IC50 (hD3 receptor) was 1210 nM, the IC50 (5-HT2a) was 1160 nM and the IC50 (hD2L receptor) was 667 nM. The “TD50 relative to effective doses obtained in the PPI test” value (mice) was “about 8 times”, the “rotarod ataxia / rotarod deficit (in words)” value (mice) was “moderate rotarod deficit” and the IC50 (5-HT7) was > 10000 nM. For the same compound, the “effect on PPI of compound alone vs vehicle control” value (rats; rats, 2.5, 5, 10 & 20 mg/kg, i.p., without apomorphine) was “no significant effect”, the “mean startle amplitude vs apomorphine control group” value (rats; rats, administered 30 min before apomorphine) was “no significant differences” and the “reversal of disruption of PPI by apomorphine” value (rats; rats, pretreatment i.p. 30 min before apomorphine 2 mg/kg, i.p.) was “reversed significantly”.
